Laboratory results: patent US20210308196A1, “COMPOSITIONS AND METHODS TO PROMOTE HOST DEFENSE AND STIMULATE, EXPAND, AND/OR RESET T CELL REPERTOIRES” (EVOLVE BIOSYSTEMS, INC., priority 2018, published 2021)

Columns and labels:
[1] = Metabolomic analysis of infant feces (UPLC-MS/MS); assay type: in vivo, human
Procedure: Fecal samples from infants of Example 1 were evaluated as described below to characterize the fecal metabolome and what effects colonization by this organism may have on the infant's metabolism as a whole.
Sample Preparation: Fecal samples were maintained at −80° C. until processed. Samples were prepared using the automated MicroLab STAR® system from Hamilton Company. Several recovery standards were added prior to the first step in the extraction process for QC purposes. To remove protein, dissociate small molecules bound to protein or trapped in the precipitated protein matrix, and to recover chemically diverse metabolites, proteins were precipitated with methanol under vigorous shaking for 2 min (Glen Mills GenoGrinder 2000) followed by centrifugation. The resulting extract was divided into five fractions: two for analysis by two separate reverse phase (RP)/UPLC-MS/MS methods with positive ion mode electrospray ionization (ESI), one for analysis by RP/UPLC-MS/MS with negative ion mode ESI, one for analysis by HILIC/UPLC-MS/MS with negative ion mode ESI, and one sample was reserved for backup. Samples were placed briefly on a TurboVap® (Zymark) to remove the organic solvent. The sample extracts were stored overnight under nitrogen before preparation for analysis.
Preparation of study-tracking replicates. A small aliquot of each sample was pooled to create a study tracking sample, which was then injected periodically throughout the platform run. Variability detected in the study tracking sample among consistently detected biochemicals can be used to calculate an estimate of overall process and platform variability.
Ultrahigh Performance Liquid Chromatography-Tandem Mass Spectroscopy (UPLC-MS/MS): All methods utilized a Waters ACQUITY ultra-performance liquid chromatography (UPLC) and a Thermo Scientific Q-Exactive high resolution/accurate mass spectrometer interfaced with a heated electrospray ionization (HESI-II) source and Orbitrap mass analyzer operated at 35,000 mass resolution. The sample extract was dried then reconstituted in solvents compatible to each of the four methods. Each reconstitution solvent contained a series of standards at fixed concentrations to ensure injection and chromatographic consistency. One aliquot was analyzed using acidic positive ion conditions, chromatographically optimized for more hydrophilic compounds. In this method, the extract was gradient eluted from a C18 column (Waters UPLC BEH C18-2.1×100 mm, 1.7 μm) using water and methanol, containing 0.05% perfluoropentanoic acid (PFPA) and 0.1% formic acid (FA). Another aliquot was also analyzed using acidic positive ion conditions, however it was chromatographically optimized for more hydrophobic compounds. In this method, the extract was gradient eluted from the same afore mentioned C18 column using methanol, acetonitrile, water, 0.05% PFPA and 0.01% FA and was operated at an overall higher organic content. Another aliquot was analyzed using basic negative ion optimized conditions using a separate dedicated C18 column. The basic extracts were gradient eluted from the column using methanol and water, however with 6.5 mM Ammonium Bicarbonate at pH 8. The fourth aliquot was analyzed via negative ionization following elution from a HILIC column (Waters UPLC BEH Amide 2.1×150 mm, 1.7 μm) using a gradient consisting of water and acetonitrile with 10 mM Ammonium Formate, pH 10.8. The MS analysis alternated between MS and data-dependent MS' scans using dynamic exclusion. The scan range varied slighted between methods but covered 70-1000 m/z.
Data Extraction and Compound Identification: Raw data was extracted, peak-identified and QC processed using Proprietary hardware and software. […]

peanut allergy = experiment: Prevention of human peanut allergy in infants; assay type: in vivo; conditions: high-level colonization vs control group with low-level colonization
Procedure: Infants 2-4 months of age at risk of allergy are recruited and their stool is screened for their Bifidobacterium infantis status (Bifidobacterium infantis abundance). The infants are divided into 2 groups: high Bifidobacterium (desirable infant gut microbiome) and low Bifidobacterium (dysbiotic infant gut microbiome). Low Bifidobacterium stool samples are determined to be low Bifidobacterium or dysbiotic, if their levels of Bifidobacterium are less than a threshold of 10^8 CFU/ug DNA and/or Bifidobacteriaceae family is less than 35% of the total infant gut microbiome as measured by a next generation sequencing, such as 16S RNA sequence. Conversely, a high Bifidobacterium sample or desirable infant gut microbiome has a threshold of 10^8 CFU/ug DNA or greater and/or Bifidobacteriaceae family is greater than 35% of the total infant gut microbiome. Once the infants are screened, the dysbiotic group is randomized into a placebo arm or a supplemented arm receiving activated B. infantis, LNnT and retinol. Infants are fed the supplement or placebo for 16 weeks. At 12 weeks, peanut extract is introduced to the diet for 3 days to infants who are at least 4 months old. Blood samples are taken at 12 weeks, 16 weeks, 20 weeks, 24 weeks, 36 weeks, 40 weeks to analyze TReg cells and IgE. At 9 months, the infants are brought in for a peanut challenge. The incident of allergy between groups is analyzed.

[2] = day 28, fold-change active:control
[3] = intervention/control, outlier removed

## Bifidobacterium longum subsp. infantis EVC001 [B. infantis EVC001]
[1]; [2]
  creatinine Active/Control: 1.4
  gamma-glutamyl-alpha-lysine Active/Control: 3.3
  gamma-glutamyl-epsilon-lysine Active/Control: 2.4
  gamma-glutamylalanine Active/Control: 5.9
  gamma-glutamylcysteine Active/Control: 44.3
  gamma-glutamylglutamate Active/Control: 3.1
  gamma-glutamylglutamine Active/Control: 1.6
  gamma-glutamylhistidine Active/Control: 10.5
  gamma-glutamylisoleucine* Active/Control: 8.1
  gamma-glutamylleucine Active/Control: 1.6
  gamma-glutamylmethionine Active/Control: 19.3
  gamma-glutamylphenylalanine Active/Control: 4.2
  gamma-glutamylthreonine Active/Control: 7.15
  gamma-glutamyltyrosine Active/Control: 2.8
  gamma-glutamylvaline Active/Control: 3.3
[1]; intervention/control
  Gamma-glutamyl Threonine Int/con: 5.35
  N-acetyl Threonine Int/con: 3.07
  Threonine Int/con: 3.21
[1]; [3]
  Gamma-glutamyl Threonine Int/Con with outlier removed: 7.15
  N-acetyl Threonine Int/Con with outlier removed: 3.67
  Threonine Int/Con with outlier removed: 4.35
[1]; versus control
  Fecal retinol: significantly reduced
Peanut allergy
  Inflammatory responses to the food antigen: reduces
